According to ChEMBL document CHEMBL4359892, “Discovery of novel indolylarylsulfones as potent HIV-1 NNRTIs via structure-guided scaffold morphing” (Eur J Med Chem, 2019):

Legend:
[1] = Selectivity index, ratio of CC50 for human MT4 cells to EC50 for antiviral activity against HIV IIIB; assay type: toxicity; settings: read-out: Ratio CC50/EC50
[2] = tested on: Human immunodeficiency virus 1; experiment: Antiviral activity against drug resistant HIV-1 harboring reverse transcriptase Y188L mutant infected in human MT4 cells assessed as reduction in virus-induced cytopathic effect incubated for 5 days by MTT assay; assay type: functional, organism-based; settings: Human immunodeficiency virus 1, MT4, 120 h
[3] = tested on: Human immunodeficiency virus 1; experiment: Antiviral activity against drug resistant HIV-1 harboring reverse transcriptase K103N mutant infected in human MT4 cells assessed as reduction in virus-induced cytopathic effect incubated for 5 days by MTT assay; assay type: functional, organism-based; settings: Human immunodeficiency virus 1, MT4, 120 h
[4] = tested on: Human immunodeficiency virus 1; experiment: Antiviral activity against drug resistant HIV-1 harboring reverse transcriptase E138K mutant infected in human MT4 cells assessed as reduction in virus-induced cytopathic effect incubated for 5 days by MTT assay; assay type: functional, organism-based; settings: Human immunodeficiency virus 1, MT4, 120 h
[5] = Selectivity index, ratio of CC50 for human MT4 cells to EC50 for antiviral activity against HIV RES056; assay type: toxicity; settings: read-out: Ratio CC50/EC50
[6] = tested on: Human immunodeficiency virus 1; experiment: Antiviral activity against drug resistant HIV-1 RES056 harboring reverse transcriptase K103N/Y181C double mutant infected in human MT4 cells assessed as reduction in virus-induced cytopathic effect incubated for 5 days by MTT assay; assay type: functional, organism-based; settings: Human immunodeficiency virus 1, RES056, MT4, 120 h
[7] = tested on: Human immunodeficiency virus 1; experiment: Antiviral activity against drug resistant HIV-1 harboring reverse transcriptase L100I mutant infected in human MT4 cells assessed as reduction in virus-induced cytopathic effect incubated for 5 days by MTT assay; assay type: functional, organism-based; settings: Human immunodeficiency virus 1, MT4, 120 h
[8] = tested on: Human immunodeficiency virus 1; experiment: Antiviral activity against HIV-1 3B infected in human MT4 cells assessed as reduction in virus-induced cytopathic effect incubated for 5 days by MTT assay; assay type: functional, organism-based; settings: Human immunodeficiency virus 1, 3B, MT4, 120 h
[9] = Cytotoxicity against human MT4 cells assessed as reduction in cell viability incubated for 5 days by MTT assay; assay type: cell-based
[10] = tested on: Human immunodeficiency virus 1; experiment: Antiviral activity against drug resistant HIV-1 harboring reverse transcriptase Y181C mutant infected in human MT4 cells assessed as reduction in virus-induced cytopathic effect incubated for 5 days by MTT assay; assay type: functional, organism-based; settings: Human immunodeficiency virus 1, MT4, 120 h
[11] = tested on: Human immunodeficiency virus 1; experiment: Antiviral activity against drug resistant HIV-1 harboring reverse transcriptase F227L/V106A double mutant infected in human MT4 cells assessed as reduction in virus-induced cytopathic effect incubated for 5 days by MTT assay; assay type: functional, organism-based; settings: Human immunodeficiency virus 1, MT4, 120 h
[12] = tested on: Human immunodeficiency virus 1; experiment: Potency index, ratio of EC50 of NVP to EC50 of compound for antiviral activity against HIV-1 3B infected in human MT4 cells assessed as reduction in virus-induced cytopathic effect incubated for 5 days by MTT assay; assay type: functional
[13] = tested on: Human immunodeficiency virus 1; experiment: Potency index, ratio of EC50 of AZT to EC50 of compound for antiviral activity against HIV-1 3B infected in human MT4 cells assessed as reduction in virus-induced cytopathic effect incubated for 5 days by MTT assay; assay type: functional
[14] = biological target: Human immunodeficiency virus type 1 reverse transcriptase (Human immunodeficiency virus 1, UniProt Q72547); experiment: Inhibition of HIV1 reverse transcriptase assessed as inhibition of biotin-dUTP incorporation into template incubated for 1 hr by ELISA
[15] = Sub-acute toxicity in Kunming mouse assessed as increase in proximal convoluted tubule edema administered for 14 days measured on day 14 by HE-staining based assay; settings: in vivo, 336 h
[16] = Sub-acute toxicity in Kunming mouse assessed as increase in alveolar interstitial thickening administered for 14 days measured on day 14 by HE-staining based assay; settings: in vivo, 336 h
[17] = Sub-acute toxicity in Kunming mouse assessed as increase in alveolar hemorrhage administered for 14 days measured on day 14 by HE-staining based assay; settings: in vivo, 336 h

| Compound | selectivity ratio [1] | EC50 [2] [µM] | EC50 [3] [µM] | EC50 [4] [µM] | selectivity ratio [5] | EC50 [6] [µM] | EC50 [7] [µM] | EC50 [8] [µM] | CC50 at 120 h [9] [µM] | EC50 [10] [µM] | EC50 [11] [µM] | Ratio EC50 [12] | Ratio EC50 [13] | IC50 [14] [µM] | Activity [15] | Activity [16] | Activity [17] |
| --- | --- | --- | --- | --- | --- | --- | --- | --- | --- | --- | --- | --- | --- | --- | --- | --- | --- |
| Cc1cc(C)cc(S(=O)(=O)c2c(C(=O)NS(=O)(=O)c3ccc(F)cc3)[nH]c3ccc(Cl)cc23)c1 | > 86 | > 253 | 21.6 | 3.78 | < 1 | > 253 | 10 | 2.95 | > 253 | 45.8 | 38.6 |  |  |  |  |  |  |
| Cc1cc(C)cc(S(=O)(=O)c2c(C(=O)NC3CN(CC(N)=O)C3)[nH]c3ccc(Cl)cc23)c1 | 1940 |  |  |  | < 1 | > 25.5 |  | 0.013 | 25.5 |  |  |  |  |  |  |  |  |
| Cc1cc(C)cc(S(=O)(=O)c2c(C(=O)N[C@H]3CCN(S(C)(=O)=O)C3)[nH]c3ccc(Cl)cc23)c1 | 7080 |  |  |  | < 1 | > 29.9 |  | 0.0043 | 29.9 |  |  | 60 | 2.3 | 0.61 |  |  |  |
| CCS(=O)(=O)NC(=O)c1[nH]c2ccc(Cl)cc2c1S(=O)(=O)c1cc(C)cc(C)c1 | > 96 | > 284 | 10.2 | 0.59 |  | > 284 | 4.4 | 2.95 | > 284 | 12.9 | 11.3 |  |  |  |  |  |  |
| CCOP(=O)(CCNC(=O)c1[nH]c2ccc(Cl)cc2c1S(=O)(=O)c1cc(C)cc(C)c1)OCC | 100 | > 131 | 3.43 | 1.2 | < 1 | > 131 | 6.81 | 1.31 | 131 | 6.71 | 7.25 |  |  |  |  |  |  |
| Cc1cc(C)cc(S(=O)(=O)c2c(C(=O)NS(=O)(=O)C3CC3)[nH]c3ccc(Cl)cc23)c1 | 57 | > 147 | 12.1 | 0.33 | < 1 | > 147 | 8.17 | 2.6 | 147 | 18.6 | 11.8 |  |  |  |  |  |  |
| Cc1cc(C)cc(S(=O)(=O)c2c(C(=O)NS(=O)(=O)C(F)(F)F)[nH]c3ccc(Cl)cc23)c1 | 393 | > 141 | 2.48 | 0.92 | < 1 | > 141 | 1.41 | 0.36 | 141 | 5.51 | 3.53 |  |  |  |  |  |  |
| Cc1cc(C)cc(S(=O)(=O)c2c(C(=O)N[C@@H]3CCN(S(C)(=O)=O)C3)[nH]c3ccc(Cl)cc23)c1 | 5190 |  |  |  | 3 | 7.66 |  | 0.0047 | 23.9 |  |  | 55 | 2.1 |  |  |  |  |
| CCCS(=O)(=O)NC(=O)c1[nH]c2ccc(Cl)cc2c1S(=O)(=O)c1cc(C)cc(C)c1 | 61 | > 146 | 17.3 | 0.43 | < 1 | > 146 | 10.9 | 2.4 | 146 | 29.6 | 20.6 |  |  |  |  |  |  |
| Cc1cc(C)cc(S(=O)(=O)c2c(C(=O)N[C@@H]3CCN(CC(N)=O)C3)[nH]c3ccc(Cl)cc23)c1 | 3170 |  |  |  | < 1 | > 31 |  | 0.0098 | 31 |  |  |  |  | 1.49 |  |  |  |
| Cc1cc(C)cc(S(=O)(=O)c2c(C(=O)NS(=O)(=O)c3ccc(F)cc3F)[nH]c3ccc(Cl)cc23)c1 | 37 | > 121 | 15 | 4.04 | < 1 | > 121 | 8.86 | 3.23 | 121 | > 121 | 30 |  |  |  |  |  |  |
| Cc1cc(C)cc(S(=O)(=O)c2c(C(=O)NS(C)(=O)=O)[nH]c3ccc(Cl)cc23)c1 | 4180 |  |  |  | ≤ 4 | ≥ 9.44 |  | 0.0096 | 40.1 |  |  |  |  |  |  |  |  |
| Cc1cc(C)cc(S(=O)(=O)c2c(C(=O)NC3CN(Cc4n[nH]c(=O)n4C)C3)[nH]c3ccc(Cl)cc23)c1 | 224 | 2.16 | 0.51 | 0.28 | > 224 | > 25.2 | 0.104 | 0.11 | 25.2 | 1.69 | 1.17 |  |  |  |  |  |  |
| Cc1cc(C)cc(S(=O)(=O)c2c(C(=O)NS(=O)(=O)c3ccccc3)[nH]c3ccc(Cl)cc23)c1 | 96 | > 167 | 3.23 | 2.01 | < 1 | > 167 | 2.17 | 1.73 | 167 | 5.33 | 7.4 |  |  |  |  |  |  |
| Cc1cc(C)cc(S(=O)(=O)c2c(C(N)=O)[nH]c3ccc(Cl)cc23)c1 | 3130 |  | 0.018 | 0.91 | < 1 | > 13 | 0.017 | 0.0041 | 13 | 0.027 | 0.0096 |  |  | 0.56 |  |  |  |
| O=C1Nc2ccc(Cl)cc2[C@@](C#CC2CC2)(C(F)(F)F)O1 [EFAVIRENZ] |  | 0.27 |  |  |  | 0.26 |  | 0.0086 | > 6.35 | 0.0083 | 0.25 |  |  |  |  |  |  |
| Cc1cc(C#N)cc(C)c1Oc1nc(Nc2ccc(C#N)cc2)nc(N)c1Br [ETRAVIRINE] | > 792 | 0.023 | 0.0029 | 0.006 | > 238 | 0.019 | 0.0062 | 0.0058 | > 4.61 | 0.013 | 0.016 |  |  |  | Toxic | Toxic | Toxic |
| Nc1ccn([C@@H]2CS[C@H](CO)O2)c(=O)n1 [LAMIVUDINE] |  | 4.45 | 3.7 | 3.58 | > 16 | 5.54 | 3.14 | 3.88 | > 87.2 | 4.54 | 1.92 |  |  |  |  |  |  |
| Cc1ccnc2c1NC(=O)c1cccnc1N2C1CC1 [NEVIRAPINE] |  | > 15 | 7.18 | 0.18 |  | > 15 | 1.24 | 0.38 | > 15 | > 15 | > 15 |  |  |  |  |  |  |
| Cc1cn([C@H]2C[C@H](N=[N+]=[N-])[C@@H](CO)O2)c(=O)[nH]c1=O [ZIDOVUDINE] | > 714 | 0.0075 | 0.012 | 0.012 | > 645 | > 28.1 | 0.0049 | 0.01 | > 7.49 | 0.0079 | 0.0049 |  |  |  |  |  |  |
